Experimental data as given in patent US20250127912A1, “COMPOSITIONS FOR DELIVERY OF POLYNUCLEOTIDES” (miRecule, Inc., priority 2021, published 2025).
No end group written: not given here. PEG1000 = N-terminal 1 kDa PEG spacer; PEG5000 = N-terminal 5 kDa PEG spacer; PEG2000 = PEG polymer of 2000 Da

Tests used:
[1] = Serum stability of miRNA mimic M30m3 alone or with cationic peptide/hybrid polymer in 5% human serum (TBE-urea gel); conditions: calculated based on first order decay comparing two time points; for Serum Stability at N/P1: M30m3 with polymer at N/P charge ratio 1, 37 C; for Serum Stability at N/P2: M30m3 with polymer at N/P charge ratio 2, 37 C
Description: miRNA mimic M30m3 alone or with a cationic peptide or a hybrid polymer at N/P charge ratios of 1 or 2 were incubated with 5% human serum at 37° C. and samples were collected at t=0, 1 hr, 4 hrs, 20 hrs and 24 hrs (1 day). Upon collection, samples were mixed with sample loading buffer containing urea, bromophenol blue, xylene cylanol and nuclease inhibitor. Samples were then reduced, heated to 95° C. for 30 minutes, run on a TBE-urea gel and then stained for oligo using sybergold.
miRNA mimic M30m3 alone or with a cationic peptide or a hybrid polymer at N/P charge ratios of 1 or 2 were incubated with 5% human serum at 37° C. and samples were collected t=0 hr, 1 hr, 4 hrs, 8 hrs and 18 hrs (ns=no serum). Upon collection, samples were mixed with sample loading buffer containing urea, bromophenol blue, xylene cylanol and nuclease inhibitor. Samples were then reduced, heated to 95° C. for 30 minutes, run on a TBE-urea gel and then stained for oligo using sybergold.
miRNA mimic M30m3 alone or with a cationic peptide or a hybrid polymer at N/P charge ratios of 1 or 2 were incubated with 5% human serum at 37° C. and samples were collected at t=0 hr, 5 hrs, and 30 hrs (ns=no serum). Upon collection, samples were mixed with sample loading buffer containing urea, bromophenol blue, xylene cylanol and nuclease inhibitor. Samples were then reduced, heated to 95° C. for 30 minutes, run on a TBE-urea gel and then stained for oligo using sybergold.
miRNA mimic M30m3 alone or with a cationic peptide or a hybrid polymer at N/P charge ratios of 1 or 2 were incubated with 5% human serum at 37° C. and samples were collected at t=0 hr, 4 hrs, and 24 hrs. Upon collection, samples were mixed with sample loading buffer containing urea, bromophenol blue, xylene cylanol and nuclease inhibitor. Samples were then reduced, heated to 95° C. for 30 minutes, run on a TBE-urea gel and then stained for oligo using sybergold.

[2] = Biodistribution of IR750-NCD5 cetuximab conjugates in mice with orthotopic UM-SCC-1^luc tumors; conditions: 5 mg/kg IR750-NCD5 cetuximab conjugate, N/P of 1; 24 and 48 hours

| Compound | Serum Stability at N/P1 [1] [h] | Serum Stability at N/P2 [1] [h] | delivery to the tumor (IR-750 fluorescence) [2] | liver and kidney delivery (IR-750 fluorescence) [2] |
| --- | --- | --- | --- | --- |
| [PEG1000]-RRRRRRRRRRRR (PEG1000-RRRRRRRRRRRR) [PEG1000DaPolyArg12] | 33.58 | 20.29 | – | – |
| NC(N)=NCCC[C@H](NC(=O)[C@H](CCCN=C(N)N)NC(=O)[C@H](CCCN=C(N)N)NC(=O)[C@H](CCCN=C(N)N)NC(=O)[C@H](CCCN=C(N)N)NC(=O)[C@@H](N)CCCN=C(N)N)C(=O)O [PolyArg6, RRRRRR] | 26.74 | 22.23 | – | – |
| NCCCNCCCCNCCCN [Spermine, reference compound] | 18.95 | 12.98 | – | – |
| N=C(N)NCCC[C@H](N)C(=O)O [Arginine, reference compound] | 7.179 | 12.26 | – | – |
| TTTTTTRRRRRRRRRRRR [T6PolyArg12] | 25.6 | 18.06 | – | – |
| [PEG5000]-RRRRRRRRRRRR (PEG5000-RRRRRRRRRRRR) [PEG5000DaPolyArg12] | 14.08 | 20.91 | – | – |
| [PEG12][PEG12]RRRRRRRRRRRR (N-terminal PEG24; MOD_RES 1 N-terminal PEG24 spacer) [PEP24PolyArg12] | 21.21 | 39.41 | – | – |
| M048 Alone: miR-30 mimic duplex M30m3 without polymer; guide SEQ ID NO: 38, passenger SEQ ID NO: 39 (guide UGUAAACAUCCUGCGACUGGAAG; sense UCCAGUCGAGGAUGUUUACA; modified_base 11 cm; modified_base 14 cm; modified_base 17 cm; modified_base 12 um; modified_base 18 um; modified_base 13 gm; modified_base 15 gm; modified_base 19 gm; modified_base 23 gm; modified_base 16 OTHER; 2'-O-methyladenosine; modified_base 22 OTHER; 2'-fluoroadenosine; misc_feature 21..22 phosphorothioate linkage; misc_feature 22..23 phosphorothioate linkage; misc_feature 1 amino C6 linker; modified_base 1 um; modified_base 2 cm; modified_base 3 cm; modified_base 19 cm; modified_base 18 OTHER; modified_base 20 OTHER) | 21.57 | – | – | – |
| [PEG12]RRRRRRRRRRRR (N-terminal PEG12; MOD_RES 1 N-terminal PEG12 spacer) [PEG12PolyArg12] | – | – | markedly improves delivery to the tumor | reduces liver and kidney delivery |
| N=C(N)NCCC[C@H](NC(=O)[C@H](CCCNC(=N)N)NC(=O)[C@H](CCCNC(=N)N)NC(=O)[C@H](CCCNC(=N)N)NC(=O)[C@H](CCCNC(=N)N)NC(=O)[C@H](CCCNC(=N)N)NC(=O)[C@H](CCCNC(=N)N)NC(=O)[C@H](CCCNC(=N)N)NC(=O)[C@H](CCCNC(=N)N)NC(=O)[C@H](CCCNC(=N)N)NC(=O)[C@H](CCCNC(=N)N)NC(=O)[C@@H](N)CCCNC(=N)N)C(=O)N[C@@H](CS)C(=O)O [PolyArg12C] | 25.99 | 31.12 | – | – |
| N=C(N)NCCC[C@H](NC(=O)[C@H](CCCNC(=N)N)NC(=O)[C@H](CCCNC(=N)N)NC(=O)[C@H](CCCNC(=N)N)NC(=O)[C@H](CCCNC(=N)N)NC(=O)[C@H](CCCNC(=N)N)NC(=O)[C@H](CCCNC(=N)N)NC(=O)[C@H](CCCNC(=N)N)NC(=O)[C@H](CCCNC(=N)N)NC(=O)[C@H](CCCNC(=N)N)NC(=O)[C@H](CCCNC(=N)N)NC(=O)[C@H](CCCNC(=N)N)NC(=O)[C@@H](N)CS)C(=O)N[C@@H](CS)C(=O)O [CPolyArg12C] | 34.91 | 18.1 | – | – |
| [PEG2000]-RRRRRRRRRRRR (PEG2000-RRRRRRRRRRRR) [PEG2000DaPolyArg12] | 15 | 46.67 | – | – |
| [PEG12]RdRdRdRdRdRdRdRdRdRdRdRd (RRRRRRRRRRRR; N-terminal PEG12; D-arginines; MOD_RES 1 N-terminal PEG12 spacer; MOD_RES 1..12 D-Arginine) [PEG12PolyArg12{d}] | 57.63 | 90.35 | – | – |
| RTRRTRRTRRTRRTRRTR [PolyArg12Tinsert] | 19.21 | 16.9 | – | – |
| [PEG12]RdRdRdRdRdRdRdRdRd [PEG12PolyArg9d] | 24.7 | 29.03 | – | – |
| RRRRRRRRRRRR-[NHS Ester-BranchedPEG2kda] [PolyArg12bp2kDa] | 19.96 | 19.2 | – | – |
| [PEG12]RRRRRR [PEG12PolyArg6] | 19.74 | 27.96 | – | – |
| N=C(N)NCCCCN [Agmatine, reference compound] | 20.78 | 17.33 | – | – |
